Reference: article PMC8950173 (Pharmaceuticals, 2022)

Target: human recombinant HDAC3/NcoR2 (Homo sapiens, UniProt O15379)
Test: Inhibition assay HDAC3 (fluorogenic substrate ZMAL)
Assay type: biochemical
Conditions: HDAC1 over HDAC3, from IC50 values
Description: In vitro inhibitory activities against HDAC1−3 and HDAC6 were measured as previously published with minor modifications. […] Subsequently, 50 µL trypsin solution (0.4 mg/mL trypsin in buffer: 50 mM Tris−HCl, pH = 8.0, 100 mM NaCl) was added, followed by additional 30 min of incubation at 37 °C. […] All compounds were tested at least twice in duplicates.

Chain of human recombinant HDAC3/NcoR2 (O15379 whole entry): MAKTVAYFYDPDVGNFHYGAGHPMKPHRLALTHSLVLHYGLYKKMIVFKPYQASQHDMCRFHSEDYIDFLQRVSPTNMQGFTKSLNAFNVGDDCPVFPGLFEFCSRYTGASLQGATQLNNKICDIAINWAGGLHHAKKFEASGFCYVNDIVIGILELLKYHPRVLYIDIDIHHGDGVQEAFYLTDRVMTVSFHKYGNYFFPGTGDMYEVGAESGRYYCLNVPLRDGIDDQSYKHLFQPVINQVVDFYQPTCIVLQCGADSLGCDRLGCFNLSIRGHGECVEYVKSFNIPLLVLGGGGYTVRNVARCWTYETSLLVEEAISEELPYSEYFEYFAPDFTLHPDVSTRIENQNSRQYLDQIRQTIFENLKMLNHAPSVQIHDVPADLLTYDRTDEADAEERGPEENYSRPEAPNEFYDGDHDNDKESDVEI
Chain of human recombinant HDAC3/NcoR2 (Q9Y618 395-489 partner limits assumed): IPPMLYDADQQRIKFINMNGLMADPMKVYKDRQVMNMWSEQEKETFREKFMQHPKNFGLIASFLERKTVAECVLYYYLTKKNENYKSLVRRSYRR

CC([18F])C(=O)NCc1ccc(C(=O)Nc2cc(-c3ccsc3)ccc2N)cc1 (stereo not shown) [[^18F]BA3]
specificity ratio (HDAC1/HDAC3): > 230
